From patent publication US20220046923A1, “HERBICIDAL CINNOLINIUM COMPOUNDS” (SYNGENTA CROP PROTECTION AG, priority 2018, published 2022)
Structures can show the parent of a compound that is named as a salt.

Assays:
Assay in all cases: Post-emergence efficacy, glasshouse spray test
Assay type in all cases: in vivo
[1] = tested on: Amaranthus palmeri (AMAPA); conditions: Amaranthus palmeri, post-emergence, 312 h, evaluated after 13 days, read-out: Control of weed species AMAPA after post-emergence application (100=total damage to plant; 0=no damage to plant); for pest or weed control at 500 g/ha: application rate 500 g/Ha; for pest or weed control at 1000 g/ha: application rate 1000 g/Ha
Method in brief: (§1)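 Compound formulated in acetone/IF50 and diluted into 0.25% or 1% Empicol ESC70 with 1% ammonium sulphate was sprayed on glasshouse seedlings 14 days after sowing. Growth continued at 24/16 °C, 14 h light, 65% humidity with twice-daily watering; damage (0–100) scored on day 13.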

[2] = tested on: Chenopodium album (CHEAL); conditions: Chenopodium album, post-emergence, 312 h, evaluated after 13 days, read-out: Control of weed species CHEAL after post-emergence application (100=total damage to plant; 0=no damage to plant); for pest or weed control at 500 g/ha: application rate 500 g/Ha; for pest or weed control at 1000 g/ha: application rate 1000 g/Ha
Method in brief: as §1

[3] = tested on: Digitaria sanguinalis (DIGSA); conditions: Digitaria sanguinalis, post-emergence, 312 h, evaluated after 13 days, read-out: Control of weed species DIGSA after post-emergence application (100=total damage to plant; 0=no damage to plant); for pest or weed control at 500 g/ha: application rate 500 g/Ha; for pest or weed control at 1000 g/ha: application rate 1000 g/Ha
Method in brief: as §1

[4] = tested on: Echinochloa crus-galli (ECHCG); conditions: Echinochloa crus-galli, post-emergence, 312 h, evaluated after 13 days, read-out: Control of weed species ECHCG after post-emergence application (100=total damage to plant; 0=no damage to plant); for pest or weed control at 500 g/ha: application rate 500 g/Ha; for pest or weed control at 1000 g/ha: application rate 1000 g/Ha
Method in brief: as §1

Eleusine indica (ELEIN) = conditions: Eleusine indica, post-emergence, 312 h, evaluated after 13 days, read-out: Control of weed species ELEIN after post-emergence application (100=total damage to plant; 0=no damage to plant); for pest or weed control at 500 g/ha: application rate 500 g/Ha; for pest or weed control at 1000 g/ha: application rate 1000 g/Ha
Method in brief: as §1

[5] = tested on: Euphorbia heterophylla (EPHHL); conditions: Euphorbia heterophylla, post-emergence, 312 h, evaluated after 13 days, read-out: Control of weed species EPHHL after post-emergence application (100=total damage to plant; 0=no damage to plant); for pest or weed control at 500 g/ha: application rate 500 g/Ha; for pest or weed control at 1000 g/ha: application rate 1000 g/Ha
Method in brief: as §1

[6] = tested on: Ipomoea hederacea (IPOHE); conditions: Ipomoea hederacea, post-emergence, 312 h, evaluated after 13 days, read-out: Control of weed species IPOHE after post-emergence application (100=total damage to plant; 0=no damage to plant); for pest or weed control at 500 g/ha: application rate 500 g/Ha; for pest or weed control at 1000 g/ha: application rate 1000 g/Ha
Method in brief: as §1

Lolium perenne (LOLPE) = conditions: Lolium perenne, post-emergence, 312 h, evaluated after 13 days, read-out: Control of weed species LOLPE after post-emergence application (100=total damage to plant; 0=no damage to plant); for pest or weed control at 500 g/ha: application rate 500 g/Ha; for pest or weed control at 1000 g/ha: application rate 1000 g/Ha
Method in brief: as §1

Setaria faberi (SETFA) = conditions: Setaria faberi, post-emergence, 312 h, evaluated after 13 days, read-out: Control of weed species SETFA after post-emergence application (100=total damage to plant; 0=no damage to plant); for pest or weed control at 500 g/ha: application rate 500 g/Ha; for pest or weed control at 1000 g/ha: application rate 1000 g/Ha
Method in brief: as §1

Structure (SMILES) | pest or weed control at 500 g/ha [1] [%] | pest or weed control at 500 g/ha [2] [%] | pest or weed control at 500 g/ha [3] [%] | pest or weed control at 500 g/ha [4] [%] | pest or weed control at 500 g/ha (Eleusine indica (ELEIN)) [%] | pest or weed control at 500 g/ha [5] [%] | pest or weed control at 500 g/ha [6] [%] | pest or weed control at 500 g/ha (Lolium perenne (LOLPE)) [%] | pest or weed control at 500 g/ha (Setaria faberi (SETFA)) [%] | pest or weed control at 1000 g/ha [1] [%] | pest or weed control at 1000 g/ha [2] [%] | pest or weed control at 1000 g/ha [3] [%] | pest or weed control at 1000 g/ha [4] [%] | pest or weed control at 1000 g/ha (Eleusine indica (ELEIN)) [%] | pest or weed control at 1000 g/ha [5] [%] | pest or weed control at 1000 g/ha [6] [%] | pest or weed control at 1000 g/ha (Lolium perenne (LOLPE)) [%] | pest or weed control at 1000 g/ha (Setaria faberi (SETFA)) [%]
C[C@@H](CNS(=O)(=O)[O-])[n+]1ccc2ccccc2n1 [Compound A50] | 80 | 70 | 30 | 20 | 20 | 60 | 40 | 20 | 20 |  |  |  |  |  |  |  |  | 
O=S(=O)([O-])CC[n+]1cc(-c2ccccc2)c2ccccc2n1 [Compound A51] |  |  |  |  |  |  |  |  |  | 90 | 30 | 40 | 20 | 30 | 60 | 30 | 10 | 30
O=S(=O)([O-])CC[n+]1ccc2cccc(-c3ccccc3)c2n1 [Compound A52, 2-(8-phenylcinnolin-2-ium-2-yl)ethanesulfonate] |  |  |  |  |  |  |  |  |  | 100 | 40 | 40 | 20 | 70 | 100 | 30 | 20 | 30
O=S(=O)([O-])CC[n+]1ccc2cc(-c3ccccc3)ccc2n1 [Compound A53] | 20 | 0 | 10 | 0 | 40 | 20 | 10 | 0 | 10 |  |  |  |  |  |  |  |  | 
CC#Cc1c[n+](CCOS(=O)(=O)[O-])nc2ccccc12 [Compound A54, 2-(4-prop-1-ynylcinnolin-2-ium-2-yl)ethyl sulfate] |  |  |  |  |  |  |  |  |  | 30 | 40 | 30 | 10 | 30 | 30 | 10 | 10 | 20
O=C(O)c1ccccc1C[n+]1ccc2ccccc2n1 [Compound A55] |  |  |  |  |  |  |  |  |  | 10 | 30 | 10 | 20 | 10 | 30 | 30 | 0 | 0
O=S(=O)(O)OCC[n+]1nc2ccccc2cc1Cl [Compound A56] |  |  |  |  |  |  |  |  |  | 0 | 0 | 20 | 10 | 30 | 50 | 0 | 0 | 20
COC(=O)C[n+]1ccc2cc(C)ccc2n1 [Compound A57] |  |  |  |  |  |  |  |  |  | 70 | 40 | 40 | 20 | 60 | 60 | 20 | 10 | 30
COC(=O)C[n+]1ccc2cccc(C)c2n1 [Compound A58] |  |  |  |  |  |  |  |  |  | 0 | 30 | 0 | 10 | 10 | 20 | 10 | 0 | 0
Cc1cccc2cc[n+](CC(=O)O)nc12 [Compound A59] |  |  |  |  |  |  |  |  |  | 30 | 60 | 20 | 20 | 10 | 20 | 10 | 10 | 20
COC(=O)C[n+]1ccc2cc(OC)ccc2n1 [Compound A60] |  |  |  |  |  |  |  |  |  | 0 | 0 | 30 | 20 | 40 | 10 | 30 | 10 | 10
COC(=O)CC[n+]1ccc2ccccc2n1 [Compound A61] |  |  |  |  |  |  |  |  |  | 70 | 60 | 80 | 60 | 90 | 70 | 60 | 10 | 50
COC(=O)C[n+]1cc(C)c2ccccc2n1 [Compound A62] |  |  |  |  |  |  |  |  |  | 70 | 60 | 50 | 30 | 70 | 40 | 50 | 40 | 30
COC(=O)CC[n+]1cc(C)c2ccccc2n1 [Compound A63] |  |  |  |  |  |  |  |  |  | 40 | 50 | 20 | 10 | 40 | 20 | 10 | 30 | 10
Cc1c[n+](CCC(=O)O)nc2ccccc12 [Compound A64] |  |  |  |  |  |  |  |  |  | 70 | 70 | 50 | 40 | 50 | 70 | 20 | 10 | 30
O=C(O)CC[n+]1ccc2ccccc2n1 [Compound A65] |  |  |  |  |  |  |  |  |  | 80 | 80 | 90 | 70 | 90 | 90 | 60 | 40 | 60
